# Data published in ChEMBL document CHEMBL1201862, “PubChem BioAssay data set” (2004).
# Activity calls are given as the source filed them.
# Experiments:
# [1] = Luminescence Cell-Based Dose Confirmation HTS to Identify Inhibitors of Platelet Dense Granule Release. [Related pubchem assays: 1663 (Primary HTS), 1678 (Summary of Project)]; type: functional
# [2] = target: Luciferin 4-monooxygenase (Photinus pyralis, UniProt P08659); assay: inhibition of purified Photinus pyralis luciferase – biochemical, luminescence, dose response (AID 1891)
# [3] = target: Glucose-6-phosphate 1-dehydrogenase (Homo sapiens, UniProt P11413); assay: inhibition of Homo sapiens G6PD, dose series – biochemical, fluorescence, selectivity assay for P. falciparum G6PD inhibitor project, dose response (AID 504792); type: functional
# [4] = target: T1, Mannose-6-phosphate isomerase (Homo sapiens, UniProt P34949); assay: MPI inhibition at elevated mannose 6-phosphate – biochemical, fluorescence intensity, high mannose 6-phosphate, primary screen (AID 1220)
# T1 sequence (P34949 whole entry): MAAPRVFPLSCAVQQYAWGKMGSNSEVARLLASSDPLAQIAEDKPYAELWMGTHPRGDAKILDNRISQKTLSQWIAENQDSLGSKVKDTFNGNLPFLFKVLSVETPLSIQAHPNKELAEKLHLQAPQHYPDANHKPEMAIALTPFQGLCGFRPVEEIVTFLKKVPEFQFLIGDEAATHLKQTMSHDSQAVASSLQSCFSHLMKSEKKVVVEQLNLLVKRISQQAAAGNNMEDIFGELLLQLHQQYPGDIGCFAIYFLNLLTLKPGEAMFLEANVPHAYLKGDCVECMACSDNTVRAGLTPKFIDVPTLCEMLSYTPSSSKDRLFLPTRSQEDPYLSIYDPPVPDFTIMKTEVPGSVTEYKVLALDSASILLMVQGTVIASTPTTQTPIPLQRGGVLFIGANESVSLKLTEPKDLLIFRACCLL
# [5] = target: Cytochrome P450 3A4 (Homo sapiens, UniProt P08684);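 further: CYP3A4 tested as one member of a cytochrome P450 panel screen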
# [6] = THP-1 cell cytotoxicity, dose response, cytotoxicity control for non-replicating M. tuberculosis project (AID 489025); type: functional
# [7] = Vero E6 cell cytotoxicity, dose response, cytotoxicity control for non-replicating M. tuberculosis project, secondary assay (AID 492998); type: functional, VeroE6; settings: Vero C1008
# [8] = cells; type: functional
# [9] = microbe, parasite or virus in culture; type: functional; settings: Mycobacterium tuberculosis
# [10] = target: T2, High affinity choline transporter 1 (Homo sapiens, UniProt Q9GZV3); assay: human choline transporter blockers, potency – cell-based, 5-point CRC, membrane potential dye, dose response (AID 504840); type: functional
# T2 sequence (Q9GZV3 whole entry): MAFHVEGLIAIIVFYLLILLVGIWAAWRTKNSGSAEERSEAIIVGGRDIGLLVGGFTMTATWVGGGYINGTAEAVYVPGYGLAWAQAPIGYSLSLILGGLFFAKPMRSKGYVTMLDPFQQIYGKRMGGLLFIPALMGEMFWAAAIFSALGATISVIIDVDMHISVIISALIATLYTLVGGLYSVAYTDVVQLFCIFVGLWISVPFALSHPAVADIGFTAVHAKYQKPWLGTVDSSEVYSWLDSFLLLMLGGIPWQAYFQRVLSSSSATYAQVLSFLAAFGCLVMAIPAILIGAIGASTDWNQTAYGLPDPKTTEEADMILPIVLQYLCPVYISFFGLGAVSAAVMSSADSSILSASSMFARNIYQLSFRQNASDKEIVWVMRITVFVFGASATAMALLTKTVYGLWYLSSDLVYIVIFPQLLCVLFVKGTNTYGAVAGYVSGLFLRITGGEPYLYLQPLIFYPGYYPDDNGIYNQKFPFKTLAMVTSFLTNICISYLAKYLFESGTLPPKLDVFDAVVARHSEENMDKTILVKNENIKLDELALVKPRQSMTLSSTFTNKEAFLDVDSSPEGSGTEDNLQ
# [11] = Luminescence Cell-Based Dose Response HTS to Identify Activators of Luciferase Translation or Activity in H4 […] Cells. [Related pubchem assays: 1829 (Project Summary), 1814 (Primary HTS)]; type: functional
# [12] = target: Mitogen-activated protein kinase 10 (Homo sapiens, UniProt P53779); assay: Dose response biochemical screening assay for inhibitors of c-Jun N-Terminal Kinase 3 (JNK3). [Related pubchem assays: 746 ]
# [13] = Luminescence Cell-Based Dose Confirmation HTS to Identify Activators of 5'UTR Stem-Loop Driven Alpha-Synuclein mRNA Translation in H4 Neuroglioblastoma Cells. [Related pubchem assays: 1829 (Project Summary), 1814 (Primary HTS)]; type: functional
# [14] = system: H4; assay: Luminescence Cell-Based Dose Response HTS to Identify Activators of 5'UTR Stem-Loop Driven Prion Protein mRNA Translation in H4 Neuroglioblastoma Cells. [Related pubchem assays: 1829 (Project Summary), 1814 (Primary HTS)]; type: functional; settings: Homo sapiens
# [15] = NIH-3T3 fibroblast cytotoxicity, dose response, cytotoxicity control, cell-based, fluorescence, Alamar Blue, secondary assay (AID 2327); type: functional;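 further: NIH-3T3 mouse fibroblasts cultured with fluconazole at 8 µg/mL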
# [16] = fluconazole-exposed Candida albicans growth modulators – fluorescence, retest, confirmation (AID 2467); type: functional, cell-based
# [17] = cells
# [18] = target: T3, Oxysterols receptor LXR-beta (Homo sapiens, UniProt P55055); type: functional, cell-based;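 further: Cell-based luminescence dose-response assay of agonist activity at LXR, run as a confirmatory counterscreen to a daf-12 agonist screen; HEK293 cells with Gal4-LXR fusion and GAL4-driven luciferase reporter; agonist potency from rising luciferase signal of a Gal4-LXR reporter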
# T3 sequence (P55055 whole entry): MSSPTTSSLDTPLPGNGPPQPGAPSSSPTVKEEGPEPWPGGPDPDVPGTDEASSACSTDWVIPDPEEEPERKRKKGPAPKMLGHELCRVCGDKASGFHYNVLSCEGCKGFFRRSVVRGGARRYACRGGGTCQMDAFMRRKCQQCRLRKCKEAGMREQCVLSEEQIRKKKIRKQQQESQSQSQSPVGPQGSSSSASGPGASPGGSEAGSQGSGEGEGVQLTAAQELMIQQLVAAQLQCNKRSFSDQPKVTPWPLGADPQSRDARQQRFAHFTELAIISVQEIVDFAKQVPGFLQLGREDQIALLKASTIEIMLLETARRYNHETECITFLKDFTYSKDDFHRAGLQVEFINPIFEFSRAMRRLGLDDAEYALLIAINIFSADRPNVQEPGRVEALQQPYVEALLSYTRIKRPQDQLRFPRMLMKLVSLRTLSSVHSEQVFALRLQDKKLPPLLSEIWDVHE
# [19] = target: Induced myeloid leukemia cell differentiation protein Mcl-1 (Homo sapiens, UniProt Q07820); type: functional
# Sequence of Induced myeloid leukemia cell differentiation protein Mcl-1 (Q07820 whole entry): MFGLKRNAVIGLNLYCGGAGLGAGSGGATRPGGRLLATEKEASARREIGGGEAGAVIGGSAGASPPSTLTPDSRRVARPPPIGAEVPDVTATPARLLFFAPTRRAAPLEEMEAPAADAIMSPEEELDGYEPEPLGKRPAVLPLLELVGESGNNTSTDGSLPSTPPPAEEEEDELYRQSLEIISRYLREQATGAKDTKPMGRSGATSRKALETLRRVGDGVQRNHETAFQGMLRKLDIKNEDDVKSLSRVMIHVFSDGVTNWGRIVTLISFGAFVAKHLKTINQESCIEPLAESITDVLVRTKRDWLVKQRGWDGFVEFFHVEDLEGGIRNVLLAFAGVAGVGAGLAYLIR
# Sequence of Cytochrome P450 3A4 (P08684 whole entry): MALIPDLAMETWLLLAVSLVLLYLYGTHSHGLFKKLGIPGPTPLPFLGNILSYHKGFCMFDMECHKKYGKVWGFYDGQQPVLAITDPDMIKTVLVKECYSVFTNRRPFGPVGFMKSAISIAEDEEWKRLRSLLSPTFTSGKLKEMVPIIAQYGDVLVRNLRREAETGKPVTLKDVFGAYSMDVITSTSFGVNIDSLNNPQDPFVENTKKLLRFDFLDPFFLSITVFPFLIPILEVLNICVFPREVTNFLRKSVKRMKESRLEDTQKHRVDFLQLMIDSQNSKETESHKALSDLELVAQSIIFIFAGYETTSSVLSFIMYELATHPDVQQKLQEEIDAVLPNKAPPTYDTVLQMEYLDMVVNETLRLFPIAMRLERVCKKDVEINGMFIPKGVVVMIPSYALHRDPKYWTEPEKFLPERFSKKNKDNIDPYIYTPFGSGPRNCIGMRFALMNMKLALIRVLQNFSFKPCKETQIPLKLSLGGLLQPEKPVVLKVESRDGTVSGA
# Sequence of Mitogen-activated protein kinase 10 (P53779 whole entry): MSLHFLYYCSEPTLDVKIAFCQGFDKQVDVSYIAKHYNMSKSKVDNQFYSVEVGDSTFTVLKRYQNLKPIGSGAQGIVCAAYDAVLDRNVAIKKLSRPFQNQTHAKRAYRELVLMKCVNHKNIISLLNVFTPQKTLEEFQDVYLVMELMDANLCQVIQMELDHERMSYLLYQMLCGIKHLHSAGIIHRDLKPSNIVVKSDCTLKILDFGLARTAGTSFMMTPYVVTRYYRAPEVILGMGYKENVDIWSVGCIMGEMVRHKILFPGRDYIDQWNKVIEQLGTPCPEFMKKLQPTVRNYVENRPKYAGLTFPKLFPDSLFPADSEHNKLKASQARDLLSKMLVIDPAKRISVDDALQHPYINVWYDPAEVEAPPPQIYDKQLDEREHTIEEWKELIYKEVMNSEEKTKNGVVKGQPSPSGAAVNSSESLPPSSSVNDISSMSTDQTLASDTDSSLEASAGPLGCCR
# Sequence of Luciferin 4-monooxygenase (P08659 whole entry): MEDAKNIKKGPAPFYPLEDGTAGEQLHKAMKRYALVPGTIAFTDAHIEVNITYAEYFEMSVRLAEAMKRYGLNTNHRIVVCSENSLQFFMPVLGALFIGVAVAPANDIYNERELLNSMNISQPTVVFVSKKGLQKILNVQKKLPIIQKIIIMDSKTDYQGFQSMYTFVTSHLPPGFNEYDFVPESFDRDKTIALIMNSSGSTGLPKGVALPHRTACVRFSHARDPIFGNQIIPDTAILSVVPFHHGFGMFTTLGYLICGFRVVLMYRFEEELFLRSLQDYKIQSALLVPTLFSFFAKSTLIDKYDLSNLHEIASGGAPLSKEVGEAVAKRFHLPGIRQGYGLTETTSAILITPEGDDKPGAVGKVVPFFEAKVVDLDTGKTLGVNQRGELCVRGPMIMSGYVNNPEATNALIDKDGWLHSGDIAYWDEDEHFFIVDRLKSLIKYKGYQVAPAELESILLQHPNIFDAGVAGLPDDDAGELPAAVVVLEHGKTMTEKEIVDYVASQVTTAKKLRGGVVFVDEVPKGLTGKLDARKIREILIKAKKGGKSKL
# Sequence of Glucose-6-phosphate 1-dehydrogenase (P11413 whole entry): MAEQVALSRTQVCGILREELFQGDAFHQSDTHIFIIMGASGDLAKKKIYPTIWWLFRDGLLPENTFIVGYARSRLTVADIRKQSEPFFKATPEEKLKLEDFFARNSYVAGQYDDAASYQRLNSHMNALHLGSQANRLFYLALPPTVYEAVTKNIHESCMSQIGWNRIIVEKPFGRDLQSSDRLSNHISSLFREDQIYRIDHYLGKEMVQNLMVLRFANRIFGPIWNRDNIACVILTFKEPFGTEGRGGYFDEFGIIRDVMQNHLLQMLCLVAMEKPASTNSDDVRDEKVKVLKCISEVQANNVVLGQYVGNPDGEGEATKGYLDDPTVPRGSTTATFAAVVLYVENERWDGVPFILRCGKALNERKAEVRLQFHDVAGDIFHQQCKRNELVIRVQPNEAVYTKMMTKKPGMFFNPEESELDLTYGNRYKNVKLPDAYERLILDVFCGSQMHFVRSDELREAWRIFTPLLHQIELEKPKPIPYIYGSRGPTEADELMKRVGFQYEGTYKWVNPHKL
smiles,measurement,setting,value
CC(C)(C)NC(=O)COc1ccc(CNc2ccc3[nH]c(O)nc3c2)cc1,EC50,[1],17.9 µM (active)
same,EC50,[2],> 112 µM (not active)
same,IC50,[3],64.6 µM (inactive)
same,IC50,[4],> 50 µM (not active)
O=C(Oc1ccccc1)N1CCC2(CC1)CCN(c1ncccn1)CC2,AC50,[5],inconclusive
O=C(Nc1cc(C(F)(F)F)ccc1-n1cncn1)c1ccc([N+](=O)[O-])o1,CC50,[6],37.3 µM (active)
same,CC50,[7],8.89 µM (active)
same,IC50,[8],19.8 µM (active)
same,CC50,[9],6.96 µM (active)
same,IC50,[10],11 µM (active)
CN1[C@@H]2CC[C@H]1CC(NC(=O)c1nn(C)c3ccccc13)C2 (some centres undefined),AC50,[5],inconclusive
Cc1nn(-c2ccccc2)c2c1C(O)n1c(nc3ccccc31)S2 (centres undefined),EC50,[11],> 120 µM (not active)
same,IC50,[12],> 93.1 µM (not active)
same,EC50,[13],> 120 µM (not active)
same,EC50,[14],> 120 µM (not active)
COc1cc(CC(=O)Nc2nccs2)cc(OC)c1OC,EC50,[15],> 160 µM (inactive)
same,IC50,[12],> 93.1 µM (not active)
same,EC50,[16],> 38 µM (not active)
Cc1ccc(-n2nc3cc(C)c(N)cc3n2)cc1,EC50,[17],> 67.5 µM (inactive)
same,EC50,[18],> 67.5 µM (inactive)
same,IC50,[4],> 50 µM (not active)
same,IC50,[19],7.02 µM (active)
Cc1ccnc(NC(=S)NC(=O)c2cccs2)c1,EC50,[17],> 67.5 µM (inactive)
same,EC50,[18],> 67.5 µM (inactive)
